Values joined by “and” are separate entries in the source; they are usually repeats but may differ in a detail not shown here. Equal values may be shown once. Toxic doses and inconclusive results are not listed.
Test system: B6C3F1 mice, B16 melanoma ip, median survival T/C
Assay: NCI In Vivo Anticancer Drug Screen. Data for tumor model B16 Melanoma (intraperitoneal) in B6C3F1 mice
Conditions: endpoint: median survival time, higher = longer survival
How it was run: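 Antitumor effect was judged in mice with transplanted tumors by dividing the treated group's survival measure by that of vehicle controls.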

[1] = dose: 12.5 mg/kg/injection, schedule: Q01DX009 (ip), vehicle: saline
[2] = dose: 25.0 mg/kg/injection, schedule: Q01DX009 (ip), vehicle: saline with Tween-80
[3] = dose: 25.0 mg/kg/injection, schedule: Q01DX009 (ip), vehicle: saline
[4] = dose: 50.0 mg/kg/injection, schedule: Q01DX009 (ip), vehicle: saline with Tween-80
[5] = dose: 50.0 mg/kg/injection, schedule: Q01DX009 (ip), vehicle: saline
[6] = dose: 100.0 mg/kg/injection, schedule: Q01DX009 (ip), vehicle: saline with Tween-80
[7] = dose: 100.0 mg/kg/injection, schedule: Q01DX009 (ip), vehicle: saline
[8] = dose: 200.0 mg/kg/injection, schedule: Q01DX009 (ip), vehicle: saline

NCCCNCCSP(=O)(O)O
T/C (dose: 12.5 mg/kg/injection, schedule: Q01DX009 (ip), vehicle: saline with Tween-80): 108 % of control
T/C [1]: 104 % of control and 106 % of control
T/C [2]: 97 % of control
T/C [3]: 115 % of control and 97 % of control
T/C [4]: 105 % of control
T/C [5]: 109 % of control and 111 % of control
T/C [6]: 108 % of control
T/C [7]: 109 % of control and 115 % of control
T/C (dose: 200.0 mg/kg/injection, schedule: Q01DX009 (ip), vehicle: saline with Tween-80): 104 % of control
T/C [8]: 121 % of control and 124 % of control

O=C(c1cccnc1)c1cc(-c2ccccn2)c(=O)n2ccccc12
T/C [2]: 96 % of control
T/C [4]: 98 % of control
T/C [6]: 89 % of control

CCCCCCCCCCCCCCCCS(=O)CC(O)COC(=O)c1ccc(C(=O)OCC(O)CS(=O)CCCCCCCCCCCCCCCC)cc1 (stereo unspecified)
T/C (dose: 12.5 mg/kg/injection, schedule: Q01DX009 (ip), vehicle: saline + alcohol): 100 % of control
T/C (dose: 25.0 mg/kg/injection, schedule: Q01DX009 (ip), vehicle: saline + alcohol): 86 % of control
T/C (dose: 50.0 mg/kg/injection, schedule: Q01DX009 (ip), vehicle: saline + alcohol): 87 % of control

O=C(O)/C=C(\F)C(=O)O
T/C (dose: 6.25 mg/kg/injection, schedule: Q01DX009 (ip), vehicle: saline): 97 % of control and 100 % of control
T/C [1]: 102 % of control and 107 % of control
T/C [3]: 108 % of control and 117 % of control
T/C [5]: 113 % of control and 114 % of control
T/C [7]: 103 % of control and 113 % of control
T/C [8]: 113 % of control and 103 % of control

Cc1cccc2c1CC(C(C)C)C2 (stereo unspecified)
T/C [4]: 105 % of control
T/C [6]: 93 % of control

CCOc1ccc2c(c1)/C(=C\C=C\C1CC(C)C3CC(OCC)CCC3N1CC)CC(C)N2CC (stereo unspecified)
T/C (dose: 1.25 mg/kg/injection, schedule: Q01DX009 (ip), vehicle: saline + alcohol): 97 % of control
T/C (dose: 2.5 mg/kg/injection, schedule: Q01DX009 (ip), vehicle: saline + alcohol): 100 % of control
T/C (dose: 5.0 mg/kg/injection, schedule: Q01DX009 (ip), vehicle: saline + alcohol): 113 % of control

CC1C(=O)c2cc3c(cc2CCN(C)Cc2c1ccc1c2OCO1)OCO3 (stereo unspecified)
T/C (dose: 5.0 mg/kg/injection, schedule: Q01DX009 (ip), vehicle: saline with Tween-80): 100 % of control
T/C (dose: 10.0 mg/kg/injection, schedule: Q01DX009 (ip), vehicle: saline with Tween-80): 104 % of control
T/C (dose: 20.0 mg/kg/injection, schedule: Q01DX009 (ip), vehicle: saline with Tween-80): 103 % of control

CN1CCC(c2ccccc2)(c2ccccc2)C(=O)C1
T/C [2]: 97 % of control
T/C [4]: 90 % of control
T/C [6]: 93 % of control and 95 % of control

O=C(O)CCCCCCCC(=O)O
T/C (dose: 12.5 mg/kg/injection, schedule: Q01DX009 (ip), vehicle: distilled water + Tween-80): 91 % of control
T/C (dose: 25.0 mg/kg/injection, schedule: Q01DX009 (ip), vehicle: distilled water + Tween-80): 101 % of control
T/C (dose: 50.0 mg/kg/injection, schedule: Q01DX009 (ip), vehicle: distilled water + Tween-80): 101 % of control
T/C (dose: 100.0 mg/kg/injection, schedule: Q01DX009 (ip), vehicle: distilled water + Tween-80): 91 % of control

O=C1CCCCCC2=NC12 (stereo unspecified)
T/C (dose: 6.25 mg/kg/injection, schedule: Q01DX009 (ip), vehicle: Klucel (hydroxypropylcellulose) (HPC)): 95 % of control
T/C (dose: 12.5 mg/kg/injection, schedule: Q01DX009 (ip), vehicle: Klucel (hydroxypropylcellulose) (HPC)): 91 % of control
T/C (dose: 25.0 mg/kg/injection, schedule: Q01DX009 (ip), vehicle: Klucel (hydroxypropylcellulose) (HPC)): 87 % of control
T/C (dose: 50.0 mg/kg/injection, schedule: Q01DX009 (ip), vehicle: Klucel (hydroxypropylcellulose) (HPC)): 98 % of control

C=C(C(=O)O)C(N)C(=O)O (stereo unspecified)
T/C [3]: 97 % of control
T/C [5]: 106 % of control
T/C [7]: 106 % of control
T/C [8]: 90 % of control

CO[C@@]12[C@H](COC(N)=O)C3=C(C(=O)C(C)=C(N)C3=O)N1C[C@@H]1N[C@@H]12
T/C (dose: 0.12 mg/kg/injection, schedule: Q01DX009 (ip), vehicle: Klucel (hydroxypropylcellulose) (HPC)): 109 % of control
T/C (dose: 0.12 mg/kg/injection, schedule: Q01DX009 (ip), vehicle: saline with Tween-80): 119 % of control
T/C (dose: 0.12 mg/kg/injection, schedule: Q01DX009 (ip), vehicle: saline): 120 % of control and 100 % of control
T/C (dose: 0.13 mg/kg/injection, schedule: Q01DX009 (ip), vehicle: water): 109 % of control and 110 % of control
T/C (dose: 0.25 mg/kg/injection, schedule: Q01DX005 (ip), vehicle: saline): 124 % of control
T/C (dose: 0.25 mg/kg/injection, schedule: Q01DX005 (iv), vehicle: saline): 107 % of control
T/C (dose: 0.25 mg/kg/injection, schedule: Q01DX009 (ip), vehicle: Klucel (hydroxypropylcellulose) (HPC)): 116 % of control
T/C (dose: 0.25 mg/kg/injection, schedule: Q01DX009 (ip), vehicle: saline): 115 % of control
T/C (dose: 0.25 mg/kg/injection, schedule: Q01DX009 (ip), vehicle: water): 124 % of control
T/C (dose: 0.5 mg/kg/injection, schedule: Q01DX001 (ip), vehicle: clinical formulation): 122 % of control
T/C (dose: 0.5 mg/kg/injection, schedule: Q01DX005 (ip), vehicle: saline): 166 % of control
T/C (dose: 0.5 mg/kg/injection, schedule: Q01DX005 (iv), vehicle: saline): 86 % of control
T/C (dose: 0.5 mg/kg/injection, schedule: Q01DX009 (ip), vehicle: Klucel (hydroxypropylcellulose) (HPC)): 116 % of control
T/C (dose: 0.5 mg/kg/injection, schedule: Q01DX009 (ip), vehicle: saline with Tween-80): 166 % of control
T/C (dose: 0.5 mg/kg/injection, schedule: Q01DX009 (ip), vehicle: saline): 161 % of control
T/C (dose: 0.5 mg/kg/injection, schedule: Q01DX009 (ip), vehicle: water): 150 % of control
T/C (dose: 0.75 mg/kg/injection, schedule: Q04DX003 (ip), vehicle: clinical formulation): 121 % of control
T/C (dose: 1.0 mg/kg/injection, schedule: Q01DX001 (ip), vehicle: saline): 165 % of control
T/C (dose: 1.0 mg/kg/injection, schedule: Q01DX001 (iv), vehicle: saline): 93 % of control
T/C (dose: 1.0 mg/kg/injection, schedule: Q01DX005 (ip), vehicle: saline): 168 % of control
T/C (dose: 1.0 mg/kg/injection, schedule: Q01DX009 (ip), vehicle: Klucel (hydroxypropylcellulose) (HPC)): 155 % of control
T/C (dose: 1.0 mg/kg/injection, schedule: Q01DX009 (ip), vehicle: saline with Tween-80): 191 % of control
T/C (dose: 1.0 mg/kg/injection, schedule: Q01DX009 (ip), vehicle: saline): 185 % of control
T/C (dose: 1.0 mg/kg/injection, schedule: Q01DX009 (ip), vehicle: water): 156 % of control and 173 % of control
T/C (dose: 1.0 mg/kg/injection, schedule: Q04DX003 (ip), vehicle: clinical formulation): 156 % of control and 160 % of control
T/C (dose: 1.25 mg/kg/injection, schedule: Q01DX009 (oral), vehicle: water): 91 % of control
T/C (dose: 2.0 mg/kg/injection, schedule: Q01DX001 (ip), vehicle: clinical formulation): 159 % of control
T/C (dose: 2.0 mg/kg/injection, schedule: Q01DX001 (iv), vehicle: saline): 118 % of control
T/C (dose: 2.0 mg/kg/injection, schedule: Q01DX005 (ip), vehicle: saline): 179 % of control
T/C (dose: 2.0 mg/kg/injection, schedule: Q01DX009 (ip), vehicle: water): 190 % of control
T/C (dose: 2.0 mg/kg/injection, schedule: Q04DX003 (ip), vehicle: clinical formulation): 190 % of control and 195 % of control
T/C (dose: 2.5 mg/kg/injection, schedule: Q01DX009 (oral), vehicle: water): 102 % of control
T/C (dose: 3.0 mg/kg/injection, schedule: Q04DX003 (ip), vehicle: clinical formulation): 203 % of control
T/C (dose: 4.0 mg/kg/injection, schedule: Q01DX001 (ip), vehicle: clinical formulation): 193 % of control
T/C (dose: 4.0 mg/kg/injection, schedule: Q01DX001 (ip), vehicle: saline): 176 % of control
T/C (dose: 4.0 mg/kg/injection, schedule: Q01DX001 (iv), vehicle: saline): 115 % of control
T/C (dose: 4.0 mg/kg/injection, schedule: Q04DX003 (ip), vehicle: clinical formulation): 239 % of control
T/C (dose: 8.0 mg/kg/injection, schedule: Q01DX001 (ip), vehicle: clinical formulation): 164 % of control
T/C (dose: 8.0 mg/kg/injection, schedule: Q01DX001 (ip), vehicle: saline): 216 % of control

O=C1C=CN(C2OC(CO)C(O)C2O)C(=O)C1 (stereo unspecified)
T/C [3]: 97 % of control
T/C [5]: 108 % of control
T/C [7]: 102 % of control
T/C [8]: 105 % of control
T/C (dose: 400.0 mg/kg/injection, schedule: Q01DX009 (ip), vehicle: saline): 115 % of control

CCOC(=O)C(CC(C)C)NC(=O)C(N)Cc1ccc(N(CCCl)CCCl)cc1 (stereo unspecified)
T/C (dose: 1.25 mg/kg/injection, schedule: Q01DX009 (ip), vehicle: water): 113 % of control
T/C (dose: 2.5 mg/kg/injection, schedule: Q01DX009 (ip), vehicle: water): 113 % of control and 102 % of control
